The series in a line: Log P by HPLC on reversed phase columns (EEC directive 79/831 Annex V.A8). The class given is physicochemical. To be noted: method [a]. The protocol:
In the above tables, measurement of Log P values was performed according to EEC directive 79/831 Annex V.A8 by HPLC (High Performance Liquid Chromatography) on reversed phase columns with the following methods: • ^[a] Log P value is determined by measurement of LC-UV, in an acidic range, with 0.1% formic acid in water and acetonitrile as eluent (linear gradient from 10% acetonitrile to 95% acetonitrile). • ^[b] Log P value is determined by measurement of LC-UV, in a neutral range, with 0.001 molar ammonium acetate solution in water and acetonitrile as eluent (linear gradient from 10% acetonitrile to 95% acetonitrile). • ^[c] Log P value is determined by measurement of LC-UV, in an acidic range, with 0.1% phosphoric acid and acetonitrile as eluent (linear gradient from 10% acetonitrile to 95% acetonitrile). If more than one Log P value is available within the same method, all the values are given and separated by “+”. Calibration was done with straight-chain alkan2-ones (with 3 to 16 carbon atoms) with known Log P values (measurement of Log P values using retention times with linear interpolation between successive alkanones). Lambda-max-values were determined using UV-spectra from 200 nm to 400 nm and the peak values of the chromatographic signals.

The structures appear in SMILES notation.

Consider `COC(=O)C1(NC(=O)c2cc(Br)c(Cl)s2)CC1` [1.0164], for which the LogP is 2.51^[a]. Under `COC(=O)C1(NC(=O)c2sc(Cl)c(Br)c2C)CC1` [1.0165] stands 2.80^[a]; under `CCOC(=O)C1(NC(=O)c2sc(Br)c(Br)c2F)CCC1` [1.0166], 3.78^[a]; under `CCOC(=O)CN(C)C(=O)c1sc(Br)c(Br)c1F` [1.0167], 3.09^[a]. For `Cc1c(C(=O)NC2(C(=O)O)CC2)sc(Br)c1Cl` [1.0168], the LogP is 2.20^[a]. On to `O=C(NC1(C(=O)O)CC1)c1cc(Br)c(Cl)s1` [1.0169], for which the LogP was 2.02^[a].

As for `Cc1c(C(=O)NC2(C(=O)O)CC2)sc(Cl)c1Br` [1.0170], the LogP was 2.21^[a]. As to `CCOC(=O)C(C(C)C)N(C)C(=O)c1sc(Br)c(Br)c1F` (stereo not shown) [1.0171], the LogP is 4.39^[a].

For the molecule `O=C(NC1(C(=O)O)CCC1)c1sc(Br)c(Br)c1F` [1.0172], the LogP is 2.62^[a]. Take `O=C(O)C1(NC(=S)c2sc(Br)c(Br)c2I)CC1` [1.0173]: the LogP was 3.09^[a]. Regarding `NC(=O)C1(NC(=O)c2sc(Br)c(Br)c2F)CC1` [1.0174], the LogP was 1.94^[a]. As for `CCOC(=O)C(NC(=O)c1sc(Br)c(Br)c1F)c1ccccc1` (stereo not shown) [1.0175], the LogP was 4.47^[a]. Then `N#CCNC(=O)c1sc(Cl)c(Br)c1Cl` [1.0176], with 2.70^[a]. With `COC(=O)CNC(=O)c1sc(Cl)c(Br)c1Cl` [1.0177], the LogP is 2.85^[a].

With `CCOC(=O)CNC(=O)c1sc(Cl)c(Br)c1Cl` [1.0178], the LogP is 3.37^[a].

Consider `CCOC(=O)CCNC(=O)c1sc(Cl)c(Br)c1Cl` [1.0179], for which the LogP is 3.54^[a].

`CCOC(=O)C1(NC(=O)c2sc(Cl)c(Br)c2Cl)CC1` [1.0180]: the LogP is 3.47^[a]. Then `COC(=O)C(NC(=O)c1sc(Cl)c(Br)c1Cl)C1CC1` (stereo not shown) [1.0181], with 3.91^[a]; and `CCOC(=O)C1(NC(=O)c2sc(Cl)c(Br)c2Cl)CCC1` [1.0182], with 4.33^[a]; and `CCOC(=O)C(NC(=O)c1sc(Cl)c(Br)c1Cl)C(C)C` (stereo not shown) [1.0183], with 4.97^[a].

For the molecule `COC(=O)C(CC(F)F)NC(=O)c1sc(Cl)c(Br)c1Cl` (stereo not shown) [1.0184], the LogP is 3.64^[a].

Turning to `CCOC(=O)C(CC(C)C)NC(=O)c1sc(Cl)c(Br)c1Cl` (stereo not shown) [1.0185], the LogP is 5.20^[a]. As to `CCOC(=O)C(CCSC)NC(=O)c1sc(Cl)c(Br)c1Cl` (stereo not shown) [1.0186], the LogP was 4.47^[a]. With `CCOC(=O)C(Cc1ccccc1)NC(=O)c1sc(Cl)c(Br)c1Cl` (stereo not shown) [1.0187], the LogP was 5.04^[a].

With `N#CCNC(=O)c1sc(Cl)c(Cl)c1I` [1.0188], the LogP is 2.72^[a].

For the molecule `CCOC(=O)CCNC(=O)c1sc(Cl)c(Cl)c1I` [1.0189], the LogP is 3.47^[a].

For `COC(=O)C(NC(=O)c1sc(Cl)c(Cl)c1I)C1CC1` (stereo not shown) [1.0190], the LogP is 3.84^[a]. On to `CCOC(=O)C1(NC(=O)c2sc(Cl)c(Cl)c2I)CCC1` [1.0191], for which the LogP is 4.12^[a]. For the molecule `COC(=O)C(CC(F)F)NC(=O)c1sc(Cl)c(Cl)c1I` (stereo not shown) [1.0192], the LogP is 3.64^[a]. Consider `N#CCNC(=O)c1sc(Br)c(Cl)c1Cl` [1.0193], for which the LogP was 2.67^[a].

For the molecule `COC(=O)CNC(=O)c1sc(Br)c(Cl)c1Cl` [1.0194], the LogP is 2.86^[a].

Regarding `CCOC(=O)CNC(=O)c1sc(Br)c(Cl)c1Cl` [1.0195], the LogP is 3.28^[a].

On to `CCOC(=O)CCNC(=O)c1sc(Br)c(Cl)c1Cl` [1.0196], for which the LogP is 3.47^[a]. Under `CCOC(=O)C1(NC(=O)c2sc(Br)c(Cl)c2Cl)CC1` [1.0197] stands 3.47^[a]; under `COC(=O)C(NC(=O)c1sc(Br)c(Cl)c1Cl)C1CC1` (stereo not shown) [1.0198], 3.87^[a]. `CCOC(=O)C1(NC(=O)c2sc(Br)c(Cl)c2Cl)CCC1` [1.0199]: the LogP is 4.26^[a]. Then `CCOC(=O)C(NC(=O)c1sc(Br)c(Cl)c1Cl)C(C)C` (stereo not shown) [1.0200], with 4.89^[a]. Under `COC(=O)C(CC(F)F)NC(=O)c1sc(Br)c(Cl)c1Cl` (stereo not shown) [1.0201] stands 3.60^[a]; under `CCOC(=O)C(CC(C)C)NC(=O)c1sc(Br)c(Cl)c1Cl` (stereo not shown) [1.0202], 5.16^[a]. Then `CCOC(=O)C(CCSC)NC(=O)c1sc(Br)c(Cl)c1Cl` (stereo not shown) [1.0203], with 4.44^[a]; and `CCOC(=O)C(Cc1ccccc1)NC(=O)c1sc(Br)c(Cl)c1Cl` (stereo not shown) [1.0204], with 5.00^[a]; and `N#CCNC(=O)c1sc(Br)c(Br)c1F` [1.0205], with 2.41^[a].

Regarding `N#CCNC(=O)c1sc(Cl)c(Br)c1Br` [1.0206], the LogP was 2.72^[a].

With `COC(=O)CNC(=O)c1sc(Cl)c(Br)c1Br` [1.0207], the LogP is 2.91^[a]. Under `CCOC(=O)CNC(=O)c1sc(Cl)c(Br)c1Br` [1.0208] stands 3.35^[a]; under `CCOC(=O)CCNC(=O)c1sc(Cl)c(Br)c1Br` [1.0209], 3.57^[a]. Under `CCOC(=O)C1(NC(=O)c2sc(Cl)c(Br)c2Br)CC1` [1.0210] stands 3.48^[a]. On to `COC(=O)C(NC(=O)c1sc(Cl)c(Br)c1Br)C1CC1` (stereo not shown) [1.0211], for which the LogP was 3.89^[a]. `CCOC(=O)C1(NC(=O)c2sc(Cl)c(Br)c2Br)CCC1` [1.0212]: the LogP was 4.24^[a]. As for `CCOC(=O)C(NC(=O)c1sc(Cl)c(Br)c1Br)C(C)C` (stereo not shown) [1.0213], the LogP was 4.89^[a]. `COC(=O)C(CC(F)F)NC(=O)c1sc(Cl)c(Br)c1Br` (stereo not shown) [1.0214]: the LogP is 3.64^[a]. On to `CCOC(=O)C(CC(C)C)NC(=O)c1sc(Cl)c(Br)c1Br` (stereo not shown) [1.0215], for which the LogP was 5.18^[a]. As for `CCOC(=O)C(CCSC)NC(=O)c1sc(Cl)c(Br)c1Br` (stereo not shown) [1.0216], the LogP was 4.40^[a]. `CCOC(=O)C(Cc1ccccc1)NC(=O)c1sc(Cl)c(Br)c1Br` (stereo not shown) [1.0217]: the LogP is 5.04^[a]. As for `O=C(NC(Cc1ccccc1)C(=O)O)c1sc(Br)c(Br)c1F` (stereo not shown) [1.0226], the LogP was 3.22^[a]. On to `O=C(O)CNC(=O)c1sc(Br)c(Br)c1F` [1.0227], for which the LogP was 2.01^[a].

For `O=C(NC(CO)C(=O)O)c1sc(Br)c(Br)c1F` (stereo not shown) [1.0228], the LogP is 1.77^[a].

`CC(C)CC(NC(=O)c1sc(Br)c(Br)c1F)C(=O)O` (stereo not shown) [1.0229]: the LogP is 3.34^[a].

On to `NC(=O)CCC(NC(=O)c1sc(Br)c(Br)c1F)C(=O)O` (stereo not shown) [1.0230], for which the LogP is 1.65^[a]. For `O=C(NC(Cc1c[nH]c2ccccc12)C(=O)O)c1sc(Br)c(Br)c1F` (stereo not shown) [1.0231], the LogP is 3.05^[a]. On to `CCOC(=O)C1(NC(=O)c2sc(Cl)c(Cl)c2C#N)CC1` [1.0232], for which the LogP was 2.72^[a].

For `CC(NC(=O)c1sc(Br)c(Br)c1F)C(=O)O` (stereo not shown) [1.0233], the LogP was 2.28^[a]. Consider `CC(C)C(NC(=O)c1sc(Br)c(Br)c1F)C(=O)O` (stereo not shown) [1.0234], for which the LogP is 2.97^[a].

Consider `CCOC(=O)CNC(=O)c1sc(Cl)c(Cl)c1C#N` [1.0236], for which the LogP was 2.52^[a]. As to `CCOC(=O)C(CCSC)NC(=O)c1cc(Cl)c(Br)s1` (stereo not shown) [1.0237], the LogP was 3.59^[a]. In the case of `CCOC(=O)C(CCSC)NC(=O)c1cc(Br)c(Cl)s1` (stereo not shown) [1.0238], the LogP is 3.65^[a]. Regarding `COC(=O)CNC(=O)c1cc(Cl)c(Br)s1` [1.0239], the LogP is 2.23^[a]. Take `COC(=O)CNC(=O)c1cc(Br)c(Cl)s1` [1.0240]: the LogP was 2.36^[a]. In the case of `COC(=O)CNC(=O)c1sc(C#N)c(Br)c1C` [1.0241], the LogP was 2.14^[a]. Under `CCOC(=O)C(CCSC)NC(=O)c1sc(C#N)c(Br)c1C` (stereo not shown) [1.0242] stands 3.34^[a].

Regarding `COC(=O)C1(NC(=O)c2sc(C#N)c(Br)c2C)CC1` [1.0243], the LogP is 2.26^[a]. `CCOC(=O)C1(NC(=O)c2sc(C#N)c(Br)c2C)CCC1` [1.0244]: the LogP is 3.07^[a]. Regarding `CCOC(=O)C(CC(C)C)NC(=O)c1sc(C#N)c(Br)c1C` (stereo not shown) [1.0245], the LogP is 3.85^[a]. For `O=C(O)CNC(=O)c1cc(Cl)c(Br)s1` [1.0247], the LogP was 1.79^[a]. As for `O=C(O)CNC(=O)c1cc(Br)c(Cl)s1` [1.0248], the LogP is 1.81^[a]. As to `Cc1c(C(=O)NCC(=O)O)sc(C#N)c1Br` [1.0249], the LogP is 1.61^[a]. As to `Cc1c(C(=O)NC2(C(=O)O)CC2)sc(C#N)c1Br` [1.0250], the LogP was 1.84^[a]. In the case of `CCSC(=O)C1(NC(=O)c2sc(Cl)c(Cl)c2C)CC1` [1.0251], the LogP is 4.08^[a]. Consider `CCSC(=O)C1(NC(=O)c2sc(Br)c(Cl)c2C)CC1` [1.0252], for which the LogP was 3.74^[a]. For `CCSC(=O)C1(NC(=O)c2sc(Cl)c(Br)c2C)CC1` [1.0253], the LogP was 3.77^[a]. `Cc1c(C(=O)NC(C(=O)O)C2CC2)sc(Br)c1Cl` (stereo not shown) [1.0254]: the LogP was 2.64^[a].

For `Cc1c(C(=O)NC(C(=O)O)C2CC2)sc(Cl)c1Br` (stereo not shown) [1.0255], the LogP is 2.67^[a]. Turning to `NC(=O)CC(NC(=O)c1sc(Br)c(Br)c1F)C(=O)O` (stereo not shown) [1.0256], the LogP is 1.66^[a].

With `CCOC(=O)C(C#N)NC(=O)c1sc(Br)c(Br)c1F` (stereo not shown) [1.0257], the LogP is 3.07^[a]. Then `CCOC(=O)C1(NC(=O)c2sc(C#N)c(Cl)c2C)CC1` [1.0258], with 2.57^[a].
